# Species on record: Rattus norvegicus
# Experiment: Open TG-GATES - Regimen: Single
# Type: toxicity, organism-based, Sprague-Dawley
# Set-up: regimen Single, gender Male, age 6 weeks
# Settings: in vivo, ip, 0.03 mg/kg, route intraperitoneal injection, dose 30 ug/Kg, dose level Low; for APTT / Bas / Eos / Fbg / Hb / Ht / Lym / MCH / MCHC / MCV / Mono / Neu / PT / Plat / RBC / Ret / WBC: tissue Blood; for KIDNEY_L / KIDNEY_R / KIDNEY_TOTAL: tissue Kidney; for LIVER: tissue Liver; for A/G / ALP / ALT / AST / BUN / CRE / Ca / Cl / DBIL / GLC / IP / K / LDH / Na / PL / RALB / TBIL / TC / TG / TP / gamma-GTP: tissue Plasma
smiles,measurement,setting,value
CC(=O)N[C@H]1[C@@H](O[C@@H]2O[C@H](CC(O)[C@H]3O[C@@H](n4ccc(=O)[nH]c4=O)[C@H](O)[C@@H]3O)[C@H](O)[C@H](O)[C@H]2NC(=O)/C=C/CC(C)C)O[C@H](CO)[C@@H](N)[C@@H]1O (stereo partly specified) [TUNICAMYCIN],TERMINAL_BW,3 h,222.8 g
same,APTT,3 h,22.4 s
same,Bas,3 h,0%
same,Eos,3 h,0.6%
same,Fbg,3 h,302.4 mg/dL
same,Hb,3 h,13 g/dL
same,Ht,3 h,39.3%
same,Lym,3 h,81%
same,MCH,3 h,20.5 pg
same,MCHC,3 h,33%
same,MCV,3 h,62.1 fL
same,Mono,3 h,3%
same,Neu,3 h,14.4%
same,PT,3 h,15.7 s
same,Plat,3 h,115.4 x10_4/uL
same,RBC,3 h,633.2 x10_4/ul
same,Ret,3 h,8.1%
same,WBC,3 h,99.9 x10_2/uL
same,KIDNEY_L,3 h,1 g
same,KIDNEY_R,3 h,1 g
same,KIDNEY_TOTAL,3 h,2 g
same,LIVER,3 h,10.4 g
same,A/G,3 h,1.2
same,ALP,3 h,1404.2 IU/L
same,ALT,3 h,37.6 IU/L
same,AST,3 h,69.6 IU/L
same,BUN,3 h,15.4 mg/dL
same,CRE,3 h,0.2 mg/dL
same,Ca,3 h,10.8 mg/dL
same,Cl,3 h,106 meq/L
same,DBIL,3 h,0 mg/dL
same,GLC,3 h,173.4 mg/dL
same,IP,3 h,7.5 mg/dL
same,K,3 h,4.5 meq/L
same,LDH,3 h,151.2 IU/L
same,Na,3 h,140.8 meq/L
same,PL,3 h,126 mg/dL
same,RALB,3 h,2.9 g/dL
same,TBIL,3 h,0.01 mg/dL
same,TC,3 h,71.8 mg/dL
same,TG,3 h,78.6 mg/dL
same,TP,3 h,5.4 g/dL
same,gamma-GTP,3 h,1.4 IU/L
same,TERMINAL_BW,6 h,219.6 g
same,APTT,6 h,21.8 s
same,Bas,6 h,0%
same,Eos,6 h,0.4%
same,Fbg,6 h,295 mg/dL
same,Hb,6 h,13.2 g/dL
same,Ht,6 h,39.8%
same,Lym,6 h,77.8%
same,MCH,6 h,20.9 pg
same,MCHC,6 h,33%
same,MCV,6 h,63.3 fL
same,Mono,6 h,2%
same,Neu,6 h,18.6%
same,PT,6 h,15.6 s
same,Plat,6 h,114.3 x10_4/uL
same,RBC,6 h,629.2 x10_4/ul
same,Ret,6 h,7.1%
same,WBC,6 h,90.7 x10_2/uL
same,KIDNEY_L,6 h,1 g
same,KIDNEY_R,6 h,1 g
same,KIDNEY_TOTAL,6 h,2 g
same,LIVER,6 h,9.8 g
same,A/G,6 h,1.2
same,ALP,6 h,1356.2 IU/L
same,ALT,6 h,42.6 IU/L
same,AST,6 h,74.6 IU/L
same,BUN,6 h,12.6 mg/dL
same,CRE,6 h,0.2 mg/dL
same,Ca,6 h,10.8 mg/dL
same,Cl,6 h,105.2 meq/L
same,DBIL,6 h,0 mg/dL
same,GLC,6 h,168.2 mg/dL
same,IP,6 h,8.9 mg/dL
same,K,6 h,4.4 meq/L
same,LDH,6 h,157.8 IU/L
same,Na,6 h,141.2 meq/L
same,PL,6 h,120.6 mg/dL
same,RALB,6 h,2.9 g/dL
same,TBIL,6 h,0.018 mg/dL
same,TC,6 h,69.2 mg/dL
same,TG,6 h,57.6 mg/dL
same,TP,6 h,5.3 g/dL
same,gamma-GTP,6 h,1.2 IU/L

# — ChEMBL document CHEMBL3885861, “Open TG-GATES”
